For assay [1], the system named is Hepatocyte growth factor receptor (Homo sapiens), P08581 [M1250T]. The experiment in a line: Inhibition of MET M1250T mutant (unknown origin) at 1 uM by Ambit Kinomescan binding assay relative to control.
Assay [2] concerns the target Protein-tyrosine kinase 2-beta (Homo sapiens) (UniProt Q14289). The experiment in a line: Inhibition of PYK2 (unknown origin) at 1 uM by Ambit Kinomescan binding assay relative to control.
Assay [3] concerns the target Proto-oncogene tyrosine-protein kinase ROS (Homo sapiens) (UniProt P08922). The experiment in a line: Inhibition of ROS1 (unknown origin) at 1 uM by Ambit Kinomescan binding assay relative to control.
Assay [4] concerns the target TGF-beta receptor type-2 (Homo sapiens) (UniProt P37173). The assay is described as follows: Inhibition of TGFBR2 (unknown origin) at 1 uM by Ambit Kinomescan binding assay relative to control.
In assay [5] the target is Serine/threonine-protein kinase 10 (Homo sapiens) (UniProt O94804). The experiment in a line: Inhibition of LOK Lys2 labeling site in human A-375 cells at 5 uM by KiNativ Profiling analysis relative to control. Type of assay: cell-based.
Sequence of Serine/threonine-protein kinase 10 (Homo sapiens) (O94804 whole entry, looked up): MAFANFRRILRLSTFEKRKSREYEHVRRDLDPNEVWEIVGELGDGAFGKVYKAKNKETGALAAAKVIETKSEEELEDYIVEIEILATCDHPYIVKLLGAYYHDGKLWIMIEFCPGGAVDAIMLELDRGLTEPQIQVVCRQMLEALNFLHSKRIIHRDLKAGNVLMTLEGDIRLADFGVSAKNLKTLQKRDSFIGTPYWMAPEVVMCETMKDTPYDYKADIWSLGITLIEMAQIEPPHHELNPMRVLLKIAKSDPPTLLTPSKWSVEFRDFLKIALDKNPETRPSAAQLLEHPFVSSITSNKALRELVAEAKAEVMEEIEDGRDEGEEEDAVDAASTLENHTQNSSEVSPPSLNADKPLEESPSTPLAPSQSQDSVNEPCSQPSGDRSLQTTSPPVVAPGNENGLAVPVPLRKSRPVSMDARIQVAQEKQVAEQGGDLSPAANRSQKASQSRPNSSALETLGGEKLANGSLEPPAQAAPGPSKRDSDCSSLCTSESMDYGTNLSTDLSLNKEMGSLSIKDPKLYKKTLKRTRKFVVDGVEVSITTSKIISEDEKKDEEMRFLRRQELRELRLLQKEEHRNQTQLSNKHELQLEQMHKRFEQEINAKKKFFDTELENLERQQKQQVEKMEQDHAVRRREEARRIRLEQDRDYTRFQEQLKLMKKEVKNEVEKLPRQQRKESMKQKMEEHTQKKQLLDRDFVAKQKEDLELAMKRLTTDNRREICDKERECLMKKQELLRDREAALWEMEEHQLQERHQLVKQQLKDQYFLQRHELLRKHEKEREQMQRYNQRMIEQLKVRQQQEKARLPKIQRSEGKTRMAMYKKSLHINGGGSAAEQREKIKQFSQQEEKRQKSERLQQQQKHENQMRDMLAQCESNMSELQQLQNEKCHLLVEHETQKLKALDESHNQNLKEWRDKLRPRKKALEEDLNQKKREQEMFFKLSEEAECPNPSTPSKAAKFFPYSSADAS
The target in assay [6] is Serine/threonine-protein kinase 38 (Homo sapiens) (UniProt Q15208). The assay is described as follows: Inhibition of NDR1 Lys2 labeling site in human A-375 cells at 5 uM by KiNativ Profiling analysis relative to control. Type of assay: cell-based.
Assay [7] deals with RAF proto-oncogene serine/threonine-protein kinase (Homo sapiens, UniProt P04049). The experiment in a line: Inhibition of RAF1 Lys2 labeling site in human A-375 cells at 5 uM by KiNativ Profiling analysis relative to control. It is filed as cell-based.
Sequence of RAF proto-oncogene serine/threonine-protein kinase (P04049 whole entry): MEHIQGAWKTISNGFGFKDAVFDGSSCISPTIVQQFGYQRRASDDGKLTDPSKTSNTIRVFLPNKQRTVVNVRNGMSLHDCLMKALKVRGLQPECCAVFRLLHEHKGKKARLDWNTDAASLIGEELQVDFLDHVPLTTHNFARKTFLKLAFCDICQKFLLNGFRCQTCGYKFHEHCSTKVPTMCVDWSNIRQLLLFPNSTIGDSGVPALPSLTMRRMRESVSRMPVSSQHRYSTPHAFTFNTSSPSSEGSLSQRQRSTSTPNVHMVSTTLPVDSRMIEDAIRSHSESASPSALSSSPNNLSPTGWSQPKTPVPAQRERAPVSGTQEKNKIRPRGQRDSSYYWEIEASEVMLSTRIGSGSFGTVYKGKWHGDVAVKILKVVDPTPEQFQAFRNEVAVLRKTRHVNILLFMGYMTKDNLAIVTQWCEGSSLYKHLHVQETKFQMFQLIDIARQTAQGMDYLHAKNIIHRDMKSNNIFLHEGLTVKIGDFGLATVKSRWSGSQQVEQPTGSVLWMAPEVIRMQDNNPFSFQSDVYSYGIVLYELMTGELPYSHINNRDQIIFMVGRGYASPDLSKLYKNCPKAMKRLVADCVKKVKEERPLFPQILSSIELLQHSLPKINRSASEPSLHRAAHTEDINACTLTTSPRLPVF
For assay [8], the target named is Tyrosine-protein kinase CSK (Homo sapiens, UniProt P41240). The experiment in a line: Inhibition of CSK ACT labeling site in human A-375 cells at 5 uM by KiNativ Profiling analysis relative to control. Type of assay: cell-based.
Sequence of Tyrosine-protein kinase CSK (P41240 2-450 limits assumed): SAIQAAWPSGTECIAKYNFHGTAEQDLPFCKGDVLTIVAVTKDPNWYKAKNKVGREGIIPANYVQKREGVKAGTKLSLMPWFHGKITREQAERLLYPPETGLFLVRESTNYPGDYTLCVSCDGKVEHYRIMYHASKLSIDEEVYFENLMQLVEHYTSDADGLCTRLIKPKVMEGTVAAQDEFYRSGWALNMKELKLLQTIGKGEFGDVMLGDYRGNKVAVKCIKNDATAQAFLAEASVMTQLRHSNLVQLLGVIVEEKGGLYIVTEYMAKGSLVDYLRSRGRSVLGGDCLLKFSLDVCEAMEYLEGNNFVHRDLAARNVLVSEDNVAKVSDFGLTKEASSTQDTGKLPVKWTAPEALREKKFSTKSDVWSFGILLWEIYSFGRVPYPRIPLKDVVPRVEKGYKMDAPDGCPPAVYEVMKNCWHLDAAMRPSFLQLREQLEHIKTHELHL
The target of assay [9] is T1, NUAK family SNF1-like kinase 2 (Homo sapiens) (UniProt Q9H093).
T1 sequence (whole entry): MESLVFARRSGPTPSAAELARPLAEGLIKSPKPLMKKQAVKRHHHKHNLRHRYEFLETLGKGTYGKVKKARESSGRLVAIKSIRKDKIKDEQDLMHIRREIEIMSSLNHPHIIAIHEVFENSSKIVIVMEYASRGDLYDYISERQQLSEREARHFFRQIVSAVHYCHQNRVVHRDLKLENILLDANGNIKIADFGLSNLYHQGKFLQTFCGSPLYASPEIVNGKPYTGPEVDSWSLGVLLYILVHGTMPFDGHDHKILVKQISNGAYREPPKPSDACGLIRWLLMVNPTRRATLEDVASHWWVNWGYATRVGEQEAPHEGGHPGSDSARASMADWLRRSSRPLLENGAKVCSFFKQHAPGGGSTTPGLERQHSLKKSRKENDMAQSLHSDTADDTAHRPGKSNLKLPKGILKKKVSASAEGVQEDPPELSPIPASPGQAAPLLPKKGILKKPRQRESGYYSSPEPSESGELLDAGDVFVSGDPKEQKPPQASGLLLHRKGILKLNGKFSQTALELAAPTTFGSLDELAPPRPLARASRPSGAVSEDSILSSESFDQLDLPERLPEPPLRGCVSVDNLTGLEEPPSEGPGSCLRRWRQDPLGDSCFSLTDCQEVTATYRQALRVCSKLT
The assay is described as follows: Inhibition of SNARK (unknown origin) at 10 uM by Ambit Kinomescan binding assay.

Assay [10] has as its target Serine/threonine-protein kinase Nek7 (Homo sapiens) (UniProt Q8TDX7). The assay is described as follows: Inhibition of NEK7 ACT labeling site in human A-375 cells at 0.5 uM by KiNativ Profiling analysis relative to control. It is filed as cell-based.
The target of assay [11] is Mitogen-activated protein kinase kinase kinase kinase 4 (Homo sapiens, UniProt O95819). The experiment in a line: Inhibition of ZC1/HGK K2 labeling site in human Huh-7 cells at 10 uM by KiNativ Profiling analysis relative to control. It is filed as cell-based.
Assay [12] concerns the target TRAF2 and NCK-interacting protein kinase (Homo sapiens) (UniProt Q9UKE5). The assay is described as follows: Inhibition of TNIK K1 labeling site in human Huh-7 cells at 10 uM by KiNativ Profiling analysis relative to control. It is filed as cell-based.
The target in assay [13] is T2, Scaffold protein ILK (Homo sapiens) (UniProt Q13418).
T2 sequence (whole entry): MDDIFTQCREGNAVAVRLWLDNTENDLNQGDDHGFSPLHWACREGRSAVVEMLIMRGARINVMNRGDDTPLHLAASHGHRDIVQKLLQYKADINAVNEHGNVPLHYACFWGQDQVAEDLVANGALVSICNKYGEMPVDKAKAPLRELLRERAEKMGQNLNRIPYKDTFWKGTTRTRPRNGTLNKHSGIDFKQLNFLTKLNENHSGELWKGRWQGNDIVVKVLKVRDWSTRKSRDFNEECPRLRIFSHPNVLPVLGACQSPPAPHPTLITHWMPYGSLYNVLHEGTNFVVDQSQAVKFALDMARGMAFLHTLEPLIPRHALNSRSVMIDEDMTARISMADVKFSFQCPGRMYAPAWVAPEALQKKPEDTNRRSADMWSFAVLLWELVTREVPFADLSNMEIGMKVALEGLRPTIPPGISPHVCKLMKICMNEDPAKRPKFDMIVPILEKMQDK
The experiment in a line: Inhibition of ILK ACT labeling site in human Huh-7 cells at 10 uM by KiNativ Profiling analysis relative to control. It is filed as cell-based.

Assay [14] has as its target Hepatocyte growth factor receptor (Homo sapiens) (UniProt P08581). The assay is described as follows: Inhibition of MET ACT labeling site in human Huh-7 cells at 10 uM by KiNativ Profiling analysis relative to control. Type of assay: cell-based.
Assay [15] is described as follows: Inhibition of NEK6/7 K2 labeling site harbouring VMHRDIKPANVFITATGVVK in human Huh-7 cells at 1 uM by KiNativ Profiling analysis relative to control. To be noted: condition cancer.
Assay [16] deals with DNA-dependent protein kinase catalytic subunit (Homo sapiens) (UniProt P78527). The experiment in a line: Inhibition of PRKDC ATP labeling site harbouring EHPFLVKGGEDLR in human Huh-7 cells at 1 uM by KiNativ Profiling analysis relative to control. It is filed as cell-based.
In assay [17] the test system is Tyrosine-protein kinase ABL1 (Homo sapiens), P00519 [T315I]. The assay is described as follows: Inhibition of ABL1 T315I mutant (unknown origin) at 10 uM by Ambit Kinomescan binding assay relative to control; values are per cent of control.
The target in assay [18] is Calcium/calmodulin-dependent protein kinase type II subunit delta (Homo sapiens) (UniProt Q13557). The experiment in a line: Inhibition of CaMK2d Lys2 labeling site in human Huh-7 cell lysate at 1 uM by KiNativ Profiling analysis relative to control. Type of assay: subcellular.
The target in assay [19] is Ribosomal protein S6 kinase alpha-3 (Homo sapiens) (UniProt P51812). The assay is described as follows: Inhibition of RSK2 domain1 ACT labeling site LTDFGLSKESIDHEK in human Huh-7 cell lysate at 1 uM by KiNativ Profiling analysis relative to control. Type of assay: subcellular.
Assay [20] deals with 5'-AMP-activated protein kinase catalytic subunit alpha-2 (Homo sapiens) (UniProt P54646). The assay is described as follows: Inhibition of AMPKa2 Lys1 labeling site in human Huh-7 cells at 1 uM by KiNativ Profiling analysis relative to control. It is filed as cell-based.
The target in assay [21] is Casein kinase I isoform alpha (Homo sapiens) (UniProt P48729). The experiment in a line: Inhibition of CK1a Lys2 labeling site in human Huh-7 cells at 1 uM by KiNativ Profiling analysis relative to control. Type of assay: cell-based.
Sequence of Casein kinase I isoform alpha (Homo sapiens) (P48729 2-337 limits assumed): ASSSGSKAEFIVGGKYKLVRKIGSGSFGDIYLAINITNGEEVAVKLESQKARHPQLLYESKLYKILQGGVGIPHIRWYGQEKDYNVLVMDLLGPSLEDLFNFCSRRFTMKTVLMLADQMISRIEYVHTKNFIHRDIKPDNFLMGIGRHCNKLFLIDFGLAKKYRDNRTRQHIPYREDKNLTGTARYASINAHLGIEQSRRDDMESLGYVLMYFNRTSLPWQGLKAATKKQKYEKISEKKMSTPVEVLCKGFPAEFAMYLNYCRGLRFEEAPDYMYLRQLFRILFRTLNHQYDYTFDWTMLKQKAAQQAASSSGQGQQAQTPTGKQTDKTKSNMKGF

The structures appear in SMILES notation. Active and inactive are the calls of the source. No cut-off for these calls is given here.

Sequence of Protein-tyrosine kinase 2-beta (Homo sapiens) (Q14289 whole entry, looked up): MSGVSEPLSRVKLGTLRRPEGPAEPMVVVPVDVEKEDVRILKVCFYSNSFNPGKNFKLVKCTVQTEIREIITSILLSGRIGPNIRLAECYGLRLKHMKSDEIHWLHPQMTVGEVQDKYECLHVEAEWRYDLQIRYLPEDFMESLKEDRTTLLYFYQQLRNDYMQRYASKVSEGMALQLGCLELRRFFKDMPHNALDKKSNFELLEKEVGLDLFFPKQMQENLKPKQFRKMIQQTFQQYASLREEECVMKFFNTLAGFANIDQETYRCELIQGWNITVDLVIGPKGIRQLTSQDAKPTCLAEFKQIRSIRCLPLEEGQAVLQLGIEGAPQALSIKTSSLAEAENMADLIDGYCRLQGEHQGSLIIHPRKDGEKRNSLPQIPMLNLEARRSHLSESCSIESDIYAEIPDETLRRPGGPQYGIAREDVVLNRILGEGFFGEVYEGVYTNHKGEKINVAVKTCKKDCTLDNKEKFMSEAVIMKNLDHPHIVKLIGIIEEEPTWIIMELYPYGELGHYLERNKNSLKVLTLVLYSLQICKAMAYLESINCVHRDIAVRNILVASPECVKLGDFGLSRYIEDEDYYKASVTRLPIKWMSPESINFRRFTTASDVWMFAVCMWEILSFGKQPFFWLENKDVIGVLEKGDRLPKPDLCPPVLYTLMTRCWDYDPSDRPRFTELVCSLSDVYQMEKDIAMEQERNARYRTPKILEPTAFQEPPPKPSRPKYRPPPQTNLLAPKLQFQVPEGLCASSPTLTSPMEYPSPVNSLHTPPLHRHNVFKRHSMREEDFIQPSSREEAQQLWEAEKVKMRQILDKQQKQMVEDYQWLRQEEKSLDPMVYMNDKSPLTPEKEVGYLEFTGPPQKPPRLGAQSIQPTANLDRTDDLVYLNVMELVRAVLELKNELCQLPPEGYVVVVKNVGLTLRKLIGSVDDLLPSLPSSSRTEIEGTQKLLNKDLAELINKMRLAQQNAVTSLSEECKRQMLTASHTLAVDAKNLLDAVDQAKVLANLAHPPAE
Sequence of Serine/threonine-protein kinase Nek7 (Homo sapiens) (Q8TDX7 whole entry, looked up): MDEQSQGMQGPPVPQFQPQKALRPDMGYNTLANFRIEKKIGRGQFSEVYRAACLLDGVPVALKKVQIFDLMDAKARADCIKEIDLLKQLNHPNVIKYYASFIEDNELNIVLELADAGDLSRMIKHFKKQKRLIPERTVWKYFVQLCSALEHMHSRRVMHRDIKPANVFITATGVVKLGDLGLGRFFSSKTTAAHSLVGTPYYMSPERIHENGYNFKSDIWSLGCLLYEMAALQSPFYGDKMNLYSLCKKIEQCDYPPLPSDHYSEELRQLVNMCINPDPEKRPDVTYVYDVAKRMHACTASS
Sequence of TRAF2 and NCK-interacting protein kinase (Homo sapiens) (Q9UKE5 whole entry, looked up): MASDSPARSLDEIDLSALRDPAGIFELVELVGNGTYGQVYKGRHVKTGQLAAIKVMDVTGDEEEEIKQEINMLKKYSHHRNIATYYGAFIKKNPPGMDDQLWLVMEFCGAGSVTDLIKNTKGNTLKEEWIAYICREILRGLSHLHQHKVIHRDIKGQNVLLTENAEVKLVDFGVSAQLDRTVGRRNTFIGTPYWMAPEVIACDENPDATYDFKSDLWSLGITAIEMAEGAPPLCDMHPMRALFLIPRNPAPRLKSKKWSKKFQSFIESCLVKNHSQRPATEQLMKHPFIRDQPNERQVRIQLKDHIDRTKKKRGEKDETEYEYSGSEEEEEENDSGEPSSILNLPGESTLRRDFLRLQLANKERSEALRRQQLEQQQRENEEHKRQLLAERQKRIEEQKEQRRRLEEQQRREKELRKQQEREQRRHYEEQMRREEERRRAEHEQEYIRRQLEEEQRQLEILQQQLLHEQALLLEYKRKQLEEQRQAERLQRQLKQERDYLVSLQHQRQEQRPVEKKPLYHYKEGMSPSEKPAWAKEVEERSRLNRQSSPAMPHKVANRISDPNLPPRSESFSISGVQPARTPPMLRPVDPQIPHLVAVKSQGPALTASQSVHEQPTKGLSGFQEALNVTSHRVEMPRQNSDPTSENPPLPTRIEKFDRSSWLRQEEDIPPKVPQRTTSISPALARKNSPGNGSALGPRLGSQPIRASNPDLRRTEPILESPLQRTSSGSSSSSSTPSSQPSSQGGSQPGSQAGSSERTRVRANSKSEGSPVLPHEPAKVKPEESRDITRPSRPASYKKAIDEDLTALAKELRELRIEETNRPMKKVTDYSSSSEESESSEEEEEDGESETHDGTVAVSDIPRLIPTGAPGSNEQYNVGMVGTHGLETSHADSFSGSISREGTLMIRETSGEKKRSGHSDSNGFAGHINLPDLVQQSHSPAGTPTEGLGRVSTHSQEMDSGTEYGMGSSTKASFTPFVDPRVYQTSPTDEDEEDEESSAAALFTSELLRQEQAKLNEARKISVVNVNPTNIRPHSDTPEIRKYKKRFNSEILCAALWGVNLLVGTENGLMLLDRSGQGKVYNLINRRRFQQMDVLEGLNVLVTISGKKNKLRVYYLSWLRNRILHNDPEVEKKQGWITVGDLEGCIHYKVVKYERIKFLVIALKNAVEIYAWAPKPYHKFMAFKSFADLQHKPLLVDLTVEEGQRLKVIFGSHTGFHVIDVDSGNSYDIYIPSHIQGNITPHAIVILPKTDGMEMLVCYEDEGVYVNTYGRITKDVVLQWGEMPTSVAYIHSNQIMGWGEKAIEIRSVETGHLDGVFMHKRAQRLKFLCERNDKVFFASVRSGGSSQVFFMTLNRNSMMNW

Turning to `CCN1CCN(Cc2ccc(NC(=O)c3ccc(C)c(/C=C/c4cnc5[nH]ccc5c4OC)c3)cc2C(F)(F)F)CC1`, the inhibition in assay [1] was determined as 74%; in assay [2] it was 19%; in [3] it was 100%; in [4] it was 52%; in assay [5] it was 77.4%; in assay [6], 25.3%.
As for `CCN1CCN(Cc2ccc(NC(=O)c3ccc(C)c(Oc4ccnc5[nH]ccc45)c3)cc2C(F)(F)F)CC1`, the inhibition in [7] was 83.8%; in assay [8] it was 57.7%; in assay [10] it was 1.6%; in [11], 72.6%; in [12], 74.5%; in assay [13], -1.1%. The values for the inhibition in assay [14] and in assay [16] were -8% and 1.4%, respectively. Also, the inhibition result in assay [9] is “inactive”. Besides, the inhibition at 1 µM in assay [15] was -15.7%. In assay [17], this compound yielded a percent of control of 0%.
For `CNc1cc(Oc2cc(C(=O)Nc3cc(N4CCN(C)CC4)cc(C(F)(F)F)c3)ccc2C)ncn1`, the inhibition in assay [18] is 0.7%; in assay [19], -5%; in assay [20], -7.5%; in assay [21], -1.9%.

The record behind these values is ChEMBL document CHEMBL5696442, “Discovery of type II inhibitors of TGFβ-activated kinase 1 (TAK1) and mitogen-activated protein kinase kinase kinase kinase 2 (MAP4K2)” (J Med Chem, 2015).
